According to article PMC8887546, “Design and Synthesis of Brain Penetrant Glycopeptide Analogues of PACAP With Neuroprotective Potential for Traumatic Brain Injury and Parkinsonism” (Frontiers in drug discovery, 2022):

Columns and labels:
Type in all cases: cell-based
human PAC1 receptor = biological target: T1, human PAC1 receptor (Homo sapiens, UniProt P41586); assay: cAMP stimulation in CHO cells expressing PAC1; conditions: for Emax: CHO
T1 construct: expressed in transfected cells; host or cells: CHO cells (G418 selection)
T1 sequence (P41586 21-468): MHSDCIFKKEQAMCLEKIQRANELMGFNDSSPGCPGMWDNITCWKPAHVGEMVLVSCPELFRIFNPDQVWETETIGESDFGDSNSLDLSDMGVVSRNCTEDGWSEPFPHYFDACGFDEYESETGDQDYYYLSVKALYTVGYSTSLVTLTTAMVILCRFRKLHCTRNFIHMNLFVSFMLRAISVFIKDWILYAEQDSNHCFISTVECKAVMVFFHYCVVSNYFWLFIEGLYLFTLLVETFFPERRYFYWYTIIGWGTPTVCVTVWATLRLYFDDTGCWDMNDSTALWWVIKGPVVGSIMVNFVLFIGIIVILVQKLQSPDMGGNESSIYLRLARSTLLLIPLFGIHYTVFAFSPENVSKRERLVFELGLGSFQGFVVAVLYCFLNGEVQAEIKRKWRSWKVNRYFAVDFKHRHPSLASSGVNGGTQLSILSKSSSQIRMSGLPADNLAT
Outline: (§1)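 Serum-starved CHO cells expressing human receptors were pre-treated 20 min with 500 μM IBMX, then exposed to agonist concentration curves for 10 min in 500 μM IBMX. cAMP quantified by competition with bovine PKA and ^3H-cAMP (1 h, room temperature), scintillation read.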

human VPAC2 receptor = biological target: T2, human VPAC2 receptor (Homo sapiens, UniProt P41587); assay: cAMP stimulation in CHO cells expressing VPAC2; conditions: for Emax: CHO; for Receptor selectivity ratio VPAC2/PAC1 / Receptor selectivity ratio VPAC2/VPAC1: ratio of cAMP EC50 values
T2 construct: expressed in transfected cells; host or cells: CHO cells (G418 selection)
T2 sequence (P41587 24-438): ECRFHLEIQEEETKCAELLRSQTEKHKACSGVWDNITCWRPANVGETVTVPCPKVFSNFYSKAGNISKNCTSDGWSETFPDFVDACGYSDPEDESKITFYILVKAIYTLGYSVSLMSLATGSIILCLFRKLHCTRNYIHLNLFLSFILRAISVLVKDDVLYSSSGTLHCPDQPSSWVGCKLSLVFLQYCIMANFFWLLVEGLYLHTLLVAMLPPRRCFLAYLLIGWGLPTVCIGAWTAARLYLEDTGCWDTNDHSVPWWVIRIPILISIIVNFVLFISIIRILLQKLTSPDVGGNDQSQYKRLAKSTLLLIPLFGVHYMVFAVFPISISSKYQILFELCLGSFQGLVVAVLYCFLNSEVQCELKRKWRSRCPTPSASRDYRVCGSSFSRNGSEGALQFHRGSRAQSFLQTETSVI
Outline: as §1

human VPAC1 receptor = biological target: T3, human VPAC1 receptor (Homo sapiens, UniProt P32241); assay: cAMP stimulation in CHO cells expressing VPAC1; conditions: for Emax: CHO, read-out: VPAC1 Emax; for Receptor selectivity ratio VPAC1/PAC1: ratio of cAMP EC50 values; for EC50: read-out: VPAC1 EC50
T3 construct: expressed in transfected cells; host or cells: CHO cells (G418 selection)
T3 sequence (P32241 31-457): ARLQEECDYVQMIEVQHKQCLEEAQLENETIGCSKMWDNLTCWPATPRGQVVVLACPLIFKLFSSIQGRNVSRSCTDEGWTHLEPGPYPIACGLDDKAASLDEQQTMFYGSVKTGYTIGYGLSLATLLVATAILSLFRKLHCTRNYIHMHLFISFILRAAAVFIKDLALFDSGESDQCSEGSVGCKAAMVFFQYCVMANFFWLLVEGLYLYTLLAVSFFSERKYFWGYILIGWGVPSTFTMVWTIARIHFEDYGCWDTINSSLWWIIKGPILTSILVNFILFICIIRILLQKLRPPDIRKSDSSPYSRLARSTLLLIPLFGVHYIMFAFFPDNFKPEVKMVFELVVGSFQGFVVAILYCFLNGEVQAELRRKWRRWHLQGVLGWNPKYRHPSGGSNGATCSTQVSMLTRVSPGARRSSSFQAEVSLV

Row | SMILES | EC50 (human PAC1 receptor) | Emax (human PAC1 receptor) | EC50 (human VPAC2 receptor) | Emax (human VPAC2 receptor) | Receptor selectivity ratio VPAC2/PAC1 (human VPAC2 receptor) | Receptor selectivity ratio VPAC2/VPAC1 (human VPAC2 receptor) | Emax (human VPAC1 receptor) | Receptor selectivity ratio VPAC1/PAC1 (human VPAC1 receptor) | EC50 (human VPAC1 receptor)
1 | CCC[C@H](NC(=O)[C@H](CCC(N)=O)NC(=O)[C@H](CCCCN)NC(=O)[C@H](CCCNC(=N)N)NC(=O)[C@H](Cc1ccc(O)cc1)NC(=O)[C@H](CCCNC(=N)N)NC(=O)[C@H](CO)NC(=O)[C@H](Cc1ccc(O)cc1)NC(=O)[C@H](CO)NC(=O)[C@H](CC(=O)O)NC(=O)[C@@H](NC(=O)[C@H](Cc1ccccc1)NC(=O)[C@@H](NC(=O)CNC(=O)[C@H](CC(=O)O)NC(=O)[C@@H](CO)NC(=O)[C@@H](N)Cc1c[nH]cn1)C(C)C)[C@@H](C)O)C(=O)N[C@@H](C)C(=O)N[C@H](C(=O)N[C@@H](CCCCN)C(=O)N[C@@H](CCCCN)C(=O)N[C@@H](Cc1ccc(O)cc1)C(=O)N[C@@H](CC(C)C)C(=O)N[C@@H](C)C(=O)N[C@@H](C)C(=O)N[C@H](C(=O)N[C@@H](CC(C)C)C(=O)N[C@@H](CO[C@@H]1O[C@H](CO)[C@@H](O)[C@H](O)[C@H]1O)C(N)=O)C(C)C)C(C)C [CRA 3012] | 81.7 nM | 80% | 1330 nM | 107% | 16.30 | 6.22 | 118% | 2.62 | 214 nM
2 | CCC[C@H](NC(=O)CNC(=O)[C@H](CC(=O)O)NC(=O)[C@@H](CO)NC(=O)[C@@H](N)Cc1c[nH]cn1)C(=O)N[C@@H](Cc1ccccc1)C(=O)N[C@H](C(=O)N[C@@H](CC(=O)O)C(=O)N[C@@H](CO)C(=O)N[C@@H](Cc1ccc(O)cc1)C(=O)N[C@@H](CO)C(=O)N[C@@H](CCCNC(=N)N)C(=O)N[C@@H](Cc1ccc(O)cc1)C(=O)N[C@@H](CCCNC(=N)N)C(=O)N[C@@H](CCCCN)C(=O)N[C@@H](CCC(N)=O)C(=O)N[C@@H](CCC)C(=O)N[C@@H](C)C(=O)N[C@H](C(=O)N[C@@H](CCCCN)C(=O)N[C@@H](CCCCN)C(=O)N[C@@H](Cc1ccc(O)cc1)C(=O)N[C@@H](CC(C)C)C(=O)N[C@@H](C)C(=O)N[C@@H](C)C(=O)N[C@H](C(=O)N[C@@H](CC(C)C)C(=O)N[C@@H](CO[C@@H]1O[C@H](CO)[C@@H](O)[C@H](O)[C@H]1O)C(N)=O)C(C)C)C(C)C)[C@@H](C)O [CRA 3016] | 25.4 nM | 93% | 291 nM | 105% | 11.46 | 10.17 | 109% | 1.13 | 28.6 nM
3 | CC[C@H](C)[C@H](NC(=O)CNC(=O)[C@H](CC(=O)O)NC(=O)[C@H](CO)NC(=O)[C@@H](N)Cc1c[nH]cn1)C(=O)N[C@@H](Cc1ccccc1)C(=O)N[C@H](C(=O)N[C@@H](CC(=O)O)C(=O)N[C@@H](CO)C(=O)N[C@@H](Cc1ccc(O)cc1)C(=O)N[C@@H](CO)C(=O)N[C@@H](CCCNC(=N)N)C(=O)N[C@@H](Cc1ccc(O)cc1)C(=O)N[C@@H](CCCNC(=N)N)C(=O)N[C@@H](CCCCN)C(=O)N[C@@H](CCC(N)=O)C(=O)N[C@@H](CC(C)C)C(=O)N[C@@H](C)C(=O)N[C@H](C(=O)N[C@@H](CCCCN)C(=O)N[C@@H](CCCCN)C(=O)N[C@@H](Cc1ccc(O)cc1)C(=O)N[C@@H](CC(C)C)C(=O)N[C@@H](C)C(=O)N[C@@H](C)C(=O)N[C@H](C(=O)N[C@@H](CC(C)C)C(=O)N[C@@H](CO[C@@H]1O[C@H](CO)[C@@H](O)[C@H](O)[C@H]1O)C(=O)N[C@@H](CO[C@@H]1O[C@H](CO)[C@@H](O)[C@H](O)[C@H]1O)C(N)=O)C(C)C)C(C)C)[C@@H](C)O [Compound 2LS140] | 2.23 nM | 102% | 156 nM | 106% | 69.96 | 50.98 | 108% | 1.37 | 3.06 nM
4 | CCC[C@H](NC(=O)[C@H](CCC(N)=O)NC(=O)[C@H](CCCCN)NC(=O)[C@H](CCCNC(=N)N)NC(=O)[C@H](Cc1ccc(O)cc1)NC(=O)[C@H](CCCNC(=N)N)NC(=O)[C@H](CO)NC(=O)[C@H](Cc1ccc(O)cc1)NC(=O)[C@H](CO)NC(=O)[C@H](CC(=O)O)NC(=O)[C@@H](NC(=O)[C@H](Cc1ccccc1)NC(=O)[C@@H](NC(=O)CNC(=O)[C@H](CC(=O)O)NC(=O)[C@@H](CO)NC(=O)[C@H](Cc1c[nH]cn1)NC(C)=O)[C@@H](C)CC)[C@@H](C)O)C(=O)N[C@@H](C)C(=O)N[C@H](C(=O)N[C@@H](CCCCN)C(=O)N[C@@H](CCCCN)C(=O)N[C@@H](Cc1ccc(O)cc1)C(=O)N[C@@H](CC(C)C)C(=O)N[C@@H](C)C(=O)N[C@@H](C)C(=O)N[C@H](C(=O)N[C@@H](CC(C)C)C(=O)N[C@@H](CO[C@@H]1O[C@H](CO)[C@@H](O[C@@H]2O[C@H](CO)[C@H](O)[C@H](O)[C@H]2O)[C@H](O)[C@H]1O)C(N)=O)C(C)C)C(C)C [Ac-CRA 3000-Lac] |  | 86% |  | 114% |  |  | 99% |  | 

Continued, values first:

Row | EC50 (human PAC1 receptor) | Emax (human PAC1 receptor) | EC50 (human VPAC2 receptor) | Emax (human VPAC2 receptor) | Receptor selectivity ratio VPAC2/PAC1 (human VPAC2 receptor) | Receptor selectivity ratio VPAC2/VPAC1 (human VPAC2 receptor) | Emax (human VPAC1 receptor) | Receptor selectivity ratio VPAC1/PAC1 (human VPAC1 receptor) | EC50 (human VPAC1 receptor) | SMILES
5 | 88.9 nM | 74% | 650 nM | 88% | 7.31 | 31.10 | 113% | 0.24 | 20.9 nM | CCC[C@H](NC(=O)[C@H](CCC(N)=O)NC(=O)[C@H](CCCCN)NC(=O)[C@H](CCCNC(=N)N)NC(=O)[C@H](Cc1ccc(O)cc1)NC(=O)[C@H](CCCNC(=N)N)NC(=O)[C@H](CO)NC(=O)[C@H](Cc1ccc(O)cc1)NC(=O)[C@H](CO)NC(=O)[C@H](CC(=O)O)NC(=O)[C@@H](NC(=O)[C@H](Cc1ccccc1)NC(=O)[C@H](CC(C)C)NC(=O)CNC(=O)[C@H](CC(=O)O)NC(=O)[C@@H](CO)NC(=O)[C@@H](N)Cc1c[nH]cn1)[C@@H](C)O)C(=O)N[C@@H](C)C(=O)N[C@H](C(=O)N[C@@H](CCCCN)C(=O)N[C@@H](CCCCN)C(=O)N[C@@H](Cc1ccc(O)cc1)C(=O)N[C@@H](CC(C)C)C(=O)N[C@@H](C)C(=O)N[C@@H](C)C(=O)N[C@H](C(=O)N[C@@H](CC(C)C)C(=O)N[C@@H](CO[C@@H]1O[C@H](CO)[C@@H](O)[C@H](O)[C@H]1O)C(N)=O)C(C)C)C(C)C [CRA3013]
6 | 448 nM | 72% | 866 nM | 92% | 1.93 | 7.22 | 104% | 0.27 | 120 nM | CCC[C@H](NC(=O)[C@H](CCC(N)=O)NC(=O)[C@H](CCCCN)NC(=O)[C@H](CCCNC(=N)N)NC(=O)[C@H](Cc1ccc(O)cc1)NC(=O)[C@H](CCCNC(=N)N)NC(=O)[C@H](CO)NC(=O)[C@H](Cc1ccc(O)cc1)NC(=O)[C@H](CO)NC(=O)[C@H](CC(=O)O)NC(=O)[C@@H](NC(=O)[C@H](Cc1ccccc1)NC(=O)[C@@H](NC(=O)CNC(=O)[C@H](CC(=O)O)NC(=O)[C@@H](CO)NC(=O)[C@@H](N)Cc1c[nH]cn1)C(C)(C)C)[C@@H](C)O)C(=O)N[C@@H](C)C(=O)N[C@H](C(=O)N[C@@H](CCCCN)C(=O)N[C@@H](CCCCN)C(=O)N[C@@H](Cc1ccc(O)cc1)C(=O)N[C@@H](CC(C)C)C(=O)N[C@@H](C)C(=O)N[C@@H](C)C(=O)N[C@H](C(=O)N[C@@H](CC(C)C)C(=O)N[C@@H](CO[C@@H]1O[C@H](CO)[C@@H](O)[C@H](O)[C@H]1O)C(N)=O)C(C)C)C(C)C [CRA3015]
